# In patent publication US8557866B2, “Isomeric mixtures of dinitro-octylphenyl esters and synergistic fungicidal mixtures therefrom” (Dow AgroSciences, LLC., priority 2007, dated 2013):
# How the values were obtained:
# [1] = system: wheat powdery mildew (ERYSGT); assay: Synergy test (Colby), 2 day curative glasshouse studies against wheat powdery mildew; format: in vivo, Erysiphe graminis f.sp tritici on wheat; conditions: alone, ERYSGT 2 day curative
# [2] = system: Uncinula necator (UNCINE); assay: High volume spray greenhouse test, 1 day protectant, grape powdery mildew; format: in vivo, Uncinula necator on grapes
# [3] = system: Erysiphe cichoracearum (ERYSCI); assay: High volume spray greenhouse test, 1 day protectant, cucumber powdery mildew; format: in vivo, Erysiphe cichoracearum on cucumbers; conditions: rate 200 ppm
# Description: (§1) The composition of Example 1 was evaluated for fungicidal efficacy in a greenhouse on 9 diseases caused by plant pathogenic fungi (TABLE II). The plant cultivars used in this study were Ugni Blanc (grape), Bovowinka (crab apple), HH88 (sugar beet), M-9 (rice) and Yuma (wheat). Broad leaf plants and rice were grown in a soil-less peat-based potting mixture (Metromix), and wheat was grown in a 50/50 mix of mineral soil and Metromix. The wheat was grown at a temperature of 20° C. and all the other plants were grown at 25° C. Apple seeds were soaked in water, incubated for a short time in 200 ppm solution of benlate and washed again with water. The moist seeds were stored in a closed container at 7° C. (45° F.) and washed once a week with water until the radical had emerged 3 mm (approximately 30 days). The seeds were then planted and seedlings with 4-6 leaves were typically ready for inoculation 3 weeks later.
# (§2) The composition of Example 1 was applied to seedlings at 100, 50, 25, and 12.5 ppm using a high volume spray application. The composition was formulated in water and serial dilutions made and then brought up to volume by adding water solution. […] Plants were evaluated for percent disease incidence 7-14 days after inoculation and the average percent disease control determined. […]
# [4] = system: Puccinia recondita (PUCCRT); assay: High volume spray greenhouse test, 1 day protectant, wheat brown rust; format: in vivo, Puccinia recondita on wheat
# Description: as §1
# The composition of Example 1 was applied to seedlings at 100, 50, 25, and 12.5 ppm using a high volume spray application. The composition was formulated in water and serial dilutions made and then brought up to volume by adding water solution. Plants were sprayed to run off with 15 mL of solution on a turn-table sprayer with two opposing 4JAUPM air atomization nozzles (Spraying Systems) at a pressure of 138 kPa. Volume of spray solution on a per hectare basis is approximately 4000 L/ha. Plants were inoculated with the pathogens 1 day after application of the composition of Example 1 (1 day protectant test), incubated in a dew chamber for 24 hours with 100 percent relative humidity and then moved to an appropriate environment for disease expression for the duration of the test. Three replicate pots were sprayed for each pathogen/composition combination. Plants were evaluated for percent disease incidence 7-14 days after inoculation and the average percent disease control determined.
# (§3) Plants were inoculated with various pathogens 1 day after application of the composition of EXAMPLES 1, 4-5 (protectant tests) and 2 days before application for EXAMPLES 6-7 (curative tests). For all wheat trials, compositions were applied at growth stage 1.2, when the second leaf was expanded to ½ of its final size (12 days after seeds were first watered). Information on the growth stages of other plant species at the time composition application and on the propagation and inoculation procedures associated with each pathogen is given below.
# (§4) PUCCRT: Spores of the obligate pathogen PUCCRT were collected from infected plants with a vacuum apparatus and stored at 4° C. Approximately 0.1 g of fresh spores (stored at 4° C. for less than 30 days) was mixed with several drops of Tween 20. The thick spore paste was diluted to 100 ml with water and sprayed to run-off on wheat seed seedlings. Plants inoculated with PUCCRT were kept in a 20° C. dew chamber overnight and then transferred to a 20° C. growth chamber where symptoms developed in 8-9 days.
# [5] = system: wheat brown rust (PUCCRT); assay: Synergy test (Colby), 1 day protectant glasshouse studies against wheat brown rust; format: in vivo, Puccinia recondita on wheat; conditions: alone, PUCCRT 1 day protectant
# Source text: as §3, §4
# A synergistic effect exists whenever the action of an active ingredient combination is greater than the sum of the action of the individual components.
# The action to be expected E for a given active ingredient combination obeys the so-called COLBY formula and can be calculated as follows (COLBY, S. R. “Calculating synergistic and antagonistic responses of herbicide combination”. Weeds, Vol. 15, pages 20-22; 1967)
# X=percent action by active ingredient I using p ppm of active ingredient
# Y=percent action by active ingredient II using q ppm of active ingredient
# According to Colby the expected additive action of active ingredients I+II using p+q ppm of active ingredients is E=X+Y−(X*Y)/100
# If the action actual observed (O) is greater than the expected action (E), then the action of the combination is super additive, that is, there is a synergistic effect.
# Protectant activity of combinations against wheat brown rust (PUCCRT).
# 1 day protectant glasshouse studies.
# [6] = system: Venturia inaequalis (VENTIN); assay: High volume spray greenhouse test, 1 day protectant, apple scab; format: in vivo, Venturia inaequalis on apple
# PYRIOR = format: in vivo, PYRIOR on rice; conditions: rate 200 ppm, high volume test
# [7] = system: Erysiphe graminis f.sp tritici (ERYSGT); assay: High volume spray greenhouse test, 1 day protectant, wheat powdery mildew; format: in vivo, Erysiphe graminis f.sp tritici on wheat
# Description: as §1, §2
compound,measurement,setting,value
"CO/C=C(/C(=O)OC)c1ccccc1Oc1cc(Oc2ccccc2C#N)ncn1 [Azoxystrobin, azoxystrobin]",Observed Percent CONTROL,[1]; 6.25 ppm,13.00%
same,Observed Percent CONTROL,[1]; 12.50 ppm,15.00%
same,Observed Percent CONTROL,[1]; 25 ppm,15%
same,Observed Percent CONTROL,[1]; 75 ppm,52%
same,Observed Percent CONTROL,[1]; 100 ppm,79%
same,Percent Disease Control UNCINE,[2]; rate 25 ppm,*** (*** is 80-100 percent control of disease)
"C/C=C/C(=O)Oc1c(C(C)CCCCCC)cc([N+](=O)[O-])cc1[N+](=O)[O-] (centres unmarked) [Ex. 1, 2,4-dinitro-6-(1-methylheptyl)phenyl crotonate]",Percent disease control,[3],** (** is 50-79 percent control of disease)
same,Observed Percent CONTROL,[1]; 75 ppm,23.00%
same,Percent Disease Control UNCINE,[2]; rate 12.5 ppm,*** (*** is 80-100 percent control of disease)
same,Percent Disease Control UNCINE,[2]; rate 25 ppm,*** (*** is 80-100 percent control of disease)
same,Percent Disease Control UNCINE,[2]; rate 50 ppm,*** (*** is 80-100 percent control of disease)
same,Percent Disease Control UNCINE,[2]; rate 100 ppm,*** (*** is 80-100 percent control of disease)
same,Percent disease control,"[4]; PUCCRT, rate 200 ppm, high volume test",*** (*** is 80-100 percent control of disease)
same,Percent Disease Control PUCCRT,[4]; rate 12.5 ppm,* (* is 0-49 percent control of disease)
same,Percent Disease Control PUCCRT,[4]; rate 25 ppm,* (* is 0-49 percent control of disease)
same,Percent Disease Control PUCCRT,[4]; rate 50 ppm,** (** is 50-79 percent control of disease)
same,Percent Disease Control PUCCRT,[4]; rate 100 ppm,*** (*** is 80-100 percent control of disease)
same,Observed Percent CONTROL,[5]; 12.50 ppm,0.00%
same,Observed Percent CONTROL,[5]; 25.00 ppm,11.76%
same,Observed Percent CONTROL,[5]; 50.00 ppm,33.33%
same,Observed Percent CONTROL,[5]; 75.00 ppm,68.63%
same,Percent Disease Control VENTIN,[6]; rate 12.5 ppm,** (** is 50-79 percent control of disease)
same,Percent Disease Control VENTIN,[6]; rate 25 ppm,** (** is 50-79 percent control of disease)
same,Percent Disease Control VENTIN,[6]; rate 50 ppm,** (** is 50-79 percent control of disease)
same,Percent Disease Control VENTIN,[6]; rate 100 ppm,*** (*** is 80-100 percent control of disease)
same,Percent disease control,PYRIOR,*** (*** is 80-100 percent control of disease)
same,Percent Disease Control ERYSGT,[7]; rate 50 ppm,*** (*** is 80-100 percent control of disease)
same,Percent Disease Control ERYSGT,[7]; rate 100 ppm,*** (*** is 80-100 percent control of disease)
"OC(c1ccc(Cl)cc1)(c1cncnc1)c1ccccc1Cl (centres unmarked) [Fenarimol, fenarimol, reference compound]",Percent Disease Control VENTIN,[6]; rate 25 ppm,*** (*** is 80-100 percent control of disease)
"CCCCC(C#N)(Cn1cncn1)c1ccc(Cl)cc1 (centres unmarked) [Myclobutanil, myclobutanil]",Observed Percent CONTROL,[5]; 3.13 ppm,0.00%
same,Observed Percent CONTROL,[5]; 6.25 ppm,27.45%
same,Observed Percent CONTROL,[5]; 12.50 ppm,74.51%
same,Observed Percent CONTROL,[5]; 18.75 ppm,84.31%
"CCCN(CC)CC1COC2(CCC(C(C)(C)C)CC2)O1 (centres unmarked) [Spiroxamine, spiroxamine]",Observed Percent CONTROL,[1]; 12.50 ppm,15.00%
mancozeb,Observed Percent CONTROL,[5]; 25.00 ppm,0.00%
same,Observed Percent CONTROL,[5]; 50.00 ppm,5.88%
same,Observed Percent CONTROL,[5]; 100.00 ppm,58.82%
same,Observed Percent CONTROL,[5]; 200.00 ppm,88.24%
